# Test results as given in PubChem BioAssay AID260 (DTP/NCI, 2004).
# Values joined by “and” are separate entries in the source; they are usually repeats but may differ in a detail not shown here. Equal values may be shown once. Inconclusive results and toxic doses are left out.
# Test system: CD2F1 mice, intracerebral L1210 leukemia, survival T/C
# Experiment: NCI In Vivo Anticancer Drug Screen. Data for tumor model L1210 Leukemia (intracerebral) in CD2F1 (CDF1) mice
# Settings: higher = longer survival
# Description: The antitumor activity of compounds was measured in mice bearing transplantable tumors. Survival or tumor size were measured and the results are expressed as the measurement made in the treated group (T) divided by the measurement made in the vehicle treated control group (C). The tumor model used in this assay is L1210 Leukemia (intracerebral) in CD2F1 (CDF1) mice
# [1] = endpoint: median survival time, dose: 8.0 mg/kg/injection, schedule: Q01DX009 (ip), vehicle: saline with Tween-80
# [2] = endpoint: median survival time, dose: 16.0 mg/kg/injection, schedule: Q01DX009 (ip), vehicle: saline with Tween-80
# [3] = endpoint: median survival time, dose: 32.0 mg/kg/injection, schedule: Q01DX009 (ip), vehicle: saline with Tween-80
# [4] = endpoint: median survival time, dose: 64.0 mg/kg/injection, schedule: Q01DX009 (ip), vehicle: saline with Tween-80
# [5] = endpoint: median survival time, dose: 128.0 mg/kg/injection, schedule: Q01DX009 (ip), vehicle: saline with Tween-80
# [6] = endpoint: median survival time, dose: 256.0 mg/kg/injection, schedule: Q01DX009 (ip), vehicle: saline with Tween-80
# [7] = endpoint: median survival time, dose: 32.0 mg/kg/injection, schedule: Q01DX005 (ip), vehicle: saline with Tween-80
# [8] = endpoint: median survival time, dose: 128.0 mg/kg/injection, schedule: Q01DX005 (ip), vehicle: saline with Tween-80
smiles,measurement,setting,value
CN(C)CC(=O)c1ccc(O)c(O)c1,T/C,"endpoint: median survival time, dose: 100.0 mg/kg/injection, schedule: Q01DX005 (ip), vehicle: saline",95 % of control and 107 % of control
same,T/C,"endpoint: median survival time, dose: 200.0 mg/kg/injection, schedule: Q01DX005 (ip), vehicle: saline",109 % of control
same,T/C,"endpoint: median survival time, dose: 400.0 mg/kg/injection, schedule: Q01DX005 (ip), vehicle: saline",290 % of control and 103 % of control
same,T/C,"endpoint: median survival time, dose: 800.0 mg/kg/injection, schedule: Q01DX005 (ip), vehicle: saline",88 % of control and 110 % of control
COc1ccc(C(=O)/C(Br)=C/C(=O)O)cc1,T/C,"endpoint: median survival time, dose: 10.0 mg/kg/injection, schedule: Q01DX005 (ip), vehicle: saline",98 % of control
same,T/C,"endpoint: median survival time, dose: 20.0 mg/kg/injection, schedule: Q01DX005 (ip), vehicle: saline",100 % of control
same,T/C,"endpoint: median survival time, dose: 40.0 mg/kg/injection, schedule: Q01DX005 (ip), vehicle: saline",105 % of control
C[C@H](CN1CC(=O)NC(=O)C1)N1CC(=O)NC(=O)C1,T/C,"endpoint: mean survival time, dose: 64.0 mg/kg/injection, schedule: Q01DX009 (ip), vehicle: water",159 % of control
same,T/C,"endpoint: mean survival time, dose: 128.0 mg/kg/injection, schedule: Q01DX009 (ip), vehicle: water",109 % of control
same,T/C,"endpoint: mean survival time, dose: 256.0 mg/kg/injection, schedule: Q01DX009 (ip), vehicle: water",90 % of control
C[n+]1ccc(Nc2ccc(NC(=O)c3ccc(Nc4cc[n+](C)c5ccc(N)cc45)cc3N)cc2)cc1,T/C,"endpoint: mean survival time, dose: 1.0 mg/kg/injection, schedule: Q01DX009 (ip), vehicle: saline",103 % of control
same,T/C,"endpoint: mean survival time, dose: 2.0 mg/kg/injection, schedule: Q01DX009 (ip), vehicle: saline",117 % of control
same,T/C,"endpoint: mean survival time, dose: 4.0 mg/kg/injection, schedule: Q01DX009 (ip), vehicle: saline",119 % of control
same,T/C,"endpoint: mean survival time, dose: 8.0 mg/kg/injection, schedule: Q01DX009 (ip), vehicle: saline",120 % of control
same,T/C,"endpoint: mean survival time, dose: 16.0 mg/kg/injection, schedule: Q01DX009 (ip), vehicle: saline",123 % of control
COc1ccc(CC2C(=O)NC(C)C(=O)N(C)C3C(=O)N(C)C(Cc4ccc(O)c(c4)Oc4ccc(cc4)C3O)C(=O)NC(C)C(=O)NC(C)C(=O)N2C)cc1 (stereo not drawn),T/C,"endpoint: median survival time, dose: 0.12 mg/kg/injection, schedule: Q01DX009 (ip), vehicle: Klucel (hydroxypropylcellulose) (HPC)",101 % of control
same,T/C,"endpoint: median survival time, dose: 0.13 mg/kg/injection, schedule: Q01DX009 (ip), vehicle: saline",93 % of control and 117 % of control
same,T/C,"endpoint: median survival time, dose: 0.25 mg/kg/injection, schedule: Q01DX009 (ip), vehicle: Klucel (hydroxypropylcellulose) (HPC)",93 % of control and 101 % of control
same,T/C,"endpoint: median survival time, dose: 0.25 mg/kg/injection, schedule: Q01DX009 (ip), vehicle: saline",124 % of control and 91 % of control
same,T/C,"endpoint: median survival time, dose: 0.5 mg/kg/injection, schedule: Q01DX009 (ip), vehicle: Klucel (hydroxypropylcellulose) (HPC)",98 % of control and 100 % of control
same,T/C,"endpoint: median survival time, dose: 0.5 mg/kg/injection, schedule: Q01DX009 (ip), vehicle: saline",124 % of control and 111 % of control
same,T/C,"endpoint: median survival time, dose: 1.0 mg/kg/injection, schedule: Q01DX009 (ip), vehicle: Klucel (hydroxypropylcellulose) (HPC)",97 % of control and 100 % of control
same,T/C,"endpoint: median survival time, dose: 1.0 mg/kg/injection, schedule: Q01DX009 (ip), vehicle: saline",104 % of control and 107 % of control
same,T/C,"endpoint: median survival time, dose: 2.0 mg/kg/injection, schedule: Q01DX009 (ip), vehicle: saline",109 % of control and 111 % of control
Nc1ncnc2c1ncn2C1OC(COP(=O)(O)O)C(O)C1O (stereo not drawn),T/C,"endpoint: median survival time, dose: 100.0 mg/kg/injection, schedule: Q01DX009 (ip), vehicle: saline",109 % of control and 110 % of control and 112 % of control
same,T/C,"endpoint: median survival time, dose: 200.0 mg/kg/injection, schedule: Q01DX009 (ip), vehicle: saline",97 % of control and 104 % of control and 115 % of control
same,T/C,"endpoint: median survival time, dose: 400.0 mg/kg/injection, schedule: Q01DX009 (ip), vehicle: saline",96 % of control and 101 % of control and 117 % of control
same,T/C,"endpoint: median survival time, dose: 800.0 mg/kg/injection, schedule: Q01DX009 (ip), vehicle: saline",101 % of control and 108 % of control
C#C[C@]1(O)CC[C@H]2[C@@H]3CCc4cc(O)ccc4[C@H]3CC[C@@]21C,T/C,[1],100 % of control and 104 % of control
same,T/C,[2],96 % of control and 98 % of control
same,T/C,[3],97 % of control and 101 % of control
same,T/C,[4],100 % of control and 101 % of control
same,T/C,[5],93 % of control and 101 % of control
same,T/C,[6],86 % of control and 101 % of control
CN(C)/N=N/c1[nH]ncc1C(N)=O,T/C,[7],112 % of control
same,T/C,[8],122 % of control
same,T/C,"endpoint: median survival time, dose: 256.0 mg/kg/injection, schedule: Q01DX005 (ip), vehicle: saline with Tween-80",114 % of control
CN(C)N=Nc1cccc(C(N)=O)c1,T/C,"endpoint: median survival time, dose: 10.0 mg/kg/injection, schedule: Q01DX005 (ip), vehicle: Klucel (hydroxypropylcellulose) (HPC)",104 % of control and 112 % of control
same,T/C,"endpoint: median survival time, dose: 20.0 mg/kg/injection, schedule: Q01DX005 (ip), vehicle: Klucel (hydroxypropylcellulose) (HPC)",120 % of control and 115 % of control
same,T/C,"endpoint: median survival time, dose: 80.0 mg/kg/injection, schedule: Q01DX005 (ip), vehicle: Klucel (hydroxypropylcellulose) (HPC)",102 % of control and 110 % of control
C1CN(P2(N3CC3)=NP(N3CC3)(N3CC3)=NP(N3CC3)(N3CC3)=N2)CCO1 (stereo not drawn),T/C,"endpoint: median survival time, dose: 20.0 mg/kg/injection, schedule: Q01DX001 (ip), vehicle: saline",92 % of control
same,T/C,"endpoint: median survival time, dose: 40.0 mg/kg/injection, schedule: Q01DX001 (ip), vehicle: saline",95 % of control
same,T/C,"endpoint: median survival time, dose: 80.0 mg/kg/injection, schedule: Q01DX001 (ip), vehicle: saline",101 % of control
O=P1(NCCCl)OCCC(OO)N1CCCl (stereo not drawn),T/C,"endpoint: median survival time, dose: 40.0 mg/kg/injection, schedule: Q01DX001 (ip), vehicle: Klucel (hydroxypropylcellulose) (HPC)",105 % of control
same,T/C,"endpoint: median survival time, dose: 80.0 mg/kg/injection, schedule: Q01DX001 (ip), vehicle: Klucel (hydroxypropylcellulose) (HPC)",111 % of control
same,T/C,"endpoint: median survival time, dose: 160.0 mg/kg/injection, schedule: Q01DX001 (ip), vehicle: Klucel (hydroxypropylcellulose) (HPC)",113 % of control
same,T/C,"endpoint: median survival time, dose: 320.0 mg/kg/injection, schedule: Q01DX001 (ip), vehicle: Klucel (hydroxypropylcellulose) (HPC)",91 % of control
CCC(=O)O[C@H]1CC[C@H]2[C@@H]3CC[C@H]4CC(=O)[C@H](C)C[C@]4(C)[C@H]3CC[C@]12C,T/C,[1],105 % of control and 115 % of control
same,T/C,[2],105 % of control
same,T/C,[3],105 % of control
same,T/C,[4],122 % of control and 101 % of control
same,T/C,[5],103 % of control
same,T/C,[6],104 % of control
same,T/C,"endpoint: median survival time, dose: 512.0 mg/kg/injection, schedule: Q01DX009 (ip), vehicle: saline with Tween-80",121 % of control and 103 % of control
CC(C)=CCC1=C(O)c2ccccc2C(=O)C1=O,T/C,"endpoint: median survival time, dose: 32.0 mg/kg/injection, schedule: Q01DX005 (ip), vehicle: Klucel (hydroxypropylcellulose) (HPC)",96 % of control and 100 % of control
same,T/C,"endpoint: median survival time, dose: 64.0 mg/kg/injection, schedule: Q01DX005 (ip), vehicle: Klucel (hydroxypropylcellulose) (HPC)",97 % of control and 102 % of control
same,T/C,"endpoint: median survival time, dose: 128.0 mg/kg/injection, schedule: Q01DX005 (ip), vehicle: Klucel (hydroxypropylcellulose) (HPC)",92 % of control and 93 % of control
same,T/C,"endpoint: median survival time, dose: 256.0 mg/kg/injection, schedule: Q01DX005 (ip), vehicle: Klucel (hydroxypropylcellulose) (HPC)",96 % of control and 105 % of control
CN(N=O)C(=O)Nc1c[nH]c(=O)[nH]c1=O,T/C,"endpoint: median survival time, dose: 8.0 mg/kg/injection, schedule: Q01DX005 (ip), vehicle: saline with Tween-80",100 % of control
same,T/C,"endpoint: median survival time, dose: 16.0 mg/kg/injection, schedule: Q01DX005 (ip), vehicle: saline with Tween-80",103 % of control
same,T/C,[7],100 % of control
same,T/C,"endpoint: median survival time, dose: 64.0 mg/kg/injection, schedule: Q01DX005 (ip), vehicle: saline with Tween-80",110 % of control
same,T/C,[8],119 % of control
CN(Cc1cnc2nc(N)nc(N)c2n1)c1ccc(C(=O)N[C@@H](CCC(=O)O)C(=O)O)cc1,T/C,"endpoint: median survival time, dose: 1.2 mg/kg/injection, schedule: Q04DX003 (ip), vehicle: saline",114 % of control
same,T/C,"endpoint: median survival time, dose: 2.3 mg/kg/injection, schedule: Q04DX003 (ip), vehicle: saline",121 % of control
same,T/C,"endpoint: median survival time, dose: 18.4 mg/kg/injection, schedule: Q04DX003 (ip), vehicle: saline",164 % of control
same,T/C,"endpoint: median survival time, dose: 36.8 mg/kg/injection, schedule: Q04DX003 (ip), vehicle: saline",164 % of control
CCN(CC)c1ccc2cc3ccc(=[N+](CC)CC)cc-3oc2c1,T/C,"endpoint: median survival time, dose: 4.0 mg/kg/injection, schedule: Q01DX005 (ip), vehicle: saline",104 % of control
same,T/C,"endpoint: median survival time, dose: 8.0 mg/kg/injection, schedule: Q01DX005 (ip), vehicle: saline",98 % of control
same,T/C,"endpoint: median survival time, dose: 16.0 mg/kg/injection, schedule: Q01DX005 (ip), vehicle: saline",105 % of control and 113 % of control
COC(COC(=O)N1CCN(C=O)CC1)C1=C(N2CC2)C(=O)C(C)=C(N2CC2)C1=O (stereo not drawn),T/C,"endpoint: median survival time, dose: 0.75 mg/kg/injection, schedule: Q01DX009 (ip), vehicle: saline",115 % of control
same,T/C,"endpoint: median survival time, dose: 1.5 mg/kg/injection, schedule: Q01DX009 (ip), vehicle: saline",105 % of control
same,T/C,"endpoint: median survival time, dose: 6.0 mg/kg/injection, schedule: Q01DX009 (ip), vehicle: saline",160 % of control
